What all share (experiment): DTP human tumour cell line panel, 48 h
Test [1] deals with U251 CNS.
The test system of test [2] is KM12 colon.
Test [3] concerns SF-295 CNS.
Test [4] deals with NCI-H23 lung.
For test [5], the system named is NCI-H226 lung.
For test [6], the system named is UACC-62 melanoma.
For test [7], the system named is UACC-257 melanoma.
The subject of test [8] is SW-620 colon.
Test [9] has as its system K-562 leukemia.
Test [10] has as its system EKVX NSCLC.
Test [11] concerns SNB-19 CNS.
The subject of test [12] is OVCAR-4 ovarian.
For test [13], the system named is NCI-H460 lung.
Test [14] concerns ACHN renal.
The subject of test [15] is LXFL 529 NSCLC.
Test [16] has as its system 786-0 renal.
Test [17] deals with MDA-MB-435.
The subject of test [18] is NCI/ADR-RES ovarian.
Test [19] concerns HS 578T breast.
The subject of test [20] is MDA-N.

Each structure is given as a SMILES string.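 Following 48 hours of exposure in 96-well plates, responses at five concentrations were used to interpolate endpoints linearly. Definition used: TGI = concentration required for complete inhibition of growth.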

A word on the TGI: it is the concentration giving total growth inhibition. For the compound `c1ccc2c3c([nH]c2c1)C1(CCCCC1)c1c([nH]c2ccccc12)C31CCCCC1`, the total growth inhibition concentration (TGI) in test [1] is 97.6 µM; in [2] it was over 100 µM; in [3] it was 56.8 µM; in test [4], over 100 µM; in test [5], 97.1 µM; in test [6], 64.5 µM. Also, the TGI in test [7] was over 100 µM; in test [8], over 100 µM; in test [9], over 100 µM; in [10], 61.7 µM; in [11], over 100 µM; in test [12], 26 µM. The TGI in test [13] is over 100 µM; in test [14], 59 µM; in [15], over 100 µM; in test [16] it was 32.2 µM.

Turning to `N#CN1CCC=C(c2cc3ccccc3[nH]2)C1`, the TGI in [1], in test [2], in test [3], in [4], in test [5] and in [6] was over 448 µM in each case. Besides, the TGI in test [7], in test [8], in test [9], in test [10], in test [11] and in test [13] was over 448 µM each time. Moreover, the TGI in test [14], in test [15] and in [16] was over 448 µM each time.

For the compound `N#CC(NNC(=O)c1ccccc1O)c1ccccc1` (stereo not drawn), the concentration for total growth inhibition (TGI) in [1] was over 100 µM; in test [2] it was over 100 µM; in test [3], over 100 µM; in test [4], over 100 µM; in [5], 76.6 µM; in test [6], 1.93 µM. Further, the TGI in test [7], in [8], in test [9], in test [12], in [13] and in [14] was over 100 µM throughout. In addition, the concentration for total growth inhibition (TGI) in test [15] and in test [16] was over 100 µM throughout.

In the case of `O=C1c2c(nc3ccccc3c2-c2ccccc2)CN1Nc1ccccc1`, the TGI in test [2], in test [5], in test [6], in [7], in test [8] and in [9] was over 100 µM in each case. Also, the concentration for total growth inhibition (TGI) in [10], in test [12], in test [15] and in [16] was over 100 µM throughout.

Take `CC1=NN(C(=O)c2ccc(Cl)cc2)C(=O)/C1=C/c1ccc(O)cc1`: the concentration for total growth inhibition (TGI) in test [1], in test [2], in test [3], in test [4], in test [5] and in test [6] was over 100 µM in each case. For the same compound, the TGI in [7], in [8], in [9], in test [10], in test [11] and in test [12] was over 100 µM in each case. Moreover, the total growth inhibition concentration (TGI) in [13], in test [14], in [15] and in [16] was over 100 µM in each case.

Consider `C/C(=N\O)C(CN1CCCCC1)C(c1ccccc1)c1c(O)c2ccccc2oc1=O` (stereo not drawn), for which the TGI in test [3], in test [4], in test [5], in [6], in test [7] and in test [8] was over 100 µM each time. Further, the concentration for total growth inhibition (TGI) in test [9] was over 10 µM; in [10] it was over 100 µM; in test [11], over 100 µM; in [12], over 100 µM; in test [14], over 100 µM; in [15] it was over 100 µM. In [16], this compound gave a concentration for total growth inhibition (TGI) of over 100 µM.

For `Cc1ccc(S(=O)(=O)c2c3[nH]c4ccccc4nc3n3c2nc2ccccc23)cc1`, the TGI in test [1], in test [2], in test [4], in [6], in test [7] and in test [8] was over 100 µM each time. In addition, the TGI in test [9], in test [10], in test [11], in test [12], in [13] and in test [14] was over 100 µM throughout. Further, the concentration for total growth inhibition (TGI) in [15] and in test [16] was over 100 µM in each case.

Take `CCN(CC)c1cccc2c1C1(O)CCC3(CC21)OCCCCO3` (stereo not drawn): the TGI in test [1], in test [2], in test [3], in test [4], in [5] and in [7] was over 100 µM throughout. Moreover, the TGI is over 100 µM in test [8]; over 100 µM in test [9]; 41 µM in [11]; over 100 µM in test [12]; over 100 µM in [13]; over 100 µM in test [14]. Further, the TGI in test [15] and in test [16] was over 100 µM throughout.

Consider `FC(F)(F)C1(C(F)(F)F)O[SiH]2(OC(C(F)(F)F)(C(F)(F)F)c3ccccc32)c2ccccc21`, for which the concentration for total growth inhibition (TGI) worked out at 19.6 µM in test [1]; 62.5 µM in test [2]; 20.3 µM in test [3]; 24.5 µM in [4]; 20.3 µM in [5]; 54.6 µM in test [7]. Besides, the TGI is 45.4 µM in [8]; 31.6 µM in [9]; 39.4 µM in test [10]; over 100 µM in test [11]; 23.4 µM in [12]; 25.5 µM in test [13]. For the same compound, the results for the TGI in [14], in [15] and in test [16] were 78.8 µM, 38.5 µM and 31.7 µM, respectively.

With `COC1=CC(=O)[C@]2(C)[C@H](C1=O)C(C)[C@H]2c1ccccc1` (stereo partly drawn), the TGI in [1], in test [2], in test [3], in test [4], in [5] and in test [6] was over 100 µM throughout. Also, the TGI in test [7], in [8], in [9], in test [10], in test [11] and in [12] was over 100 µM in each case. Further, the total growth inhibition concentration (TGI) in test [13], in [14], in [15] and in test [16] was over 100 µM each time.

Turning to `C=CCCCCCC(O)C(O)C/C=C\C/C=C\CC` (stereo not drawn), the TGI in [1], in test [2], in test [3], in test [4], in [5] and in test [6] was over 18.8 µM in each case. For the same compound, the TGI in test [7], in [8], in [9], in test [10], in [11] and in test [12] was over 18.8 µM each time. The TGI in test [13], in test [14], in test [15] and in [16] was over 18.8 µM throughout.

In the case of `Cc1csc2nc3[nH]ncc3c(=O)n12`, the concentration for total growth inhibition (TGI) in test [1], in test [2], in test [3], in test [4], in test [5] and in test [17] was over 100 µM each time. The concentration for total growth inhibition (TGI) in [18], in [6], in [7], in [19], in test [8] and in test [9] was over 100 µM in each case. In addition, the total growth inhibition concentration (TGI) in test [10], in test [11], in [12], in test [20], in [13] and in test [14] was over 100 µM in each case. This compound showed a TGI in [16] of over 100 µM.

`COc1cc(-c2oc(C=Nc3ccccc3)c([N+](=O)[O-])c2-c2ccc(O)c(OC)c2)ccc1O`: the TGI in test [1] was 66.1 µM; in test [2], over 85.4 µM; in [3] it was over 95.7 µM; in test [4] it was 33.9 µM; in test [5], over 100 µM; in test [17] it was over 85.9 µM. The concentration for total growth inhibition (TGI) was over 68.1 µM in [18]; 47.2 µM in test [6]; over 73.6 µM in test [7]; over 100 µM in [19]; over 85.3 µM in test [8]; over 100 µM in [9]. Moreover, the TGI in test [10] is over 73.9 µM; in [11] it was 80.1 µM; in test [12], 67.8 µM; in [20], over 85.7 µM; in [13], 35.5 µM; in test [14], 32 µM. Further, in test [16], the TGI is over 58.3 µM.

With `COc1ccc2c(c1)CCCN1Cc3ccccc3CC21` (stereo not drawn), the total growth inhibition concentration (TGI) in test [1], in test [2], in [3], in test [4], in [5] and in test [17] was over 100 µM throughout. The TGI in test [18], in test [6], in test [7], in test [19], in [8] and in test [9] was over 100 µM throughout. Further, the TGI in test [10], in test [11], in test [12], in test [20], in [13] and in [14] was over 100 µM each time. Moreover, the TGI in [16] is over 100 µM.

With `CCN1C[C@]2(C)CC[C@H](OCc3ccccc3)C34C5C[C@@H]6CC[C@](O)(C(C[C@@H]32)C14)C5[C@H]6OCc1ccccc1` (stereo partly drawn), the concentration for total growth inhibition (TGI) in [1], in test [2], in test [3], in [4], in test [5] and in [17] was over 100 µM throughout. The TGI in test [18], in test [6], in [7], in test [19], in [8] and in [9] was over 100 µM each time. In addition, the concentration for total growth inhibition (TGI) in test [10], in test [11], in test [12], in [20], in test [13] and in [14] was over 100 µM each time. This compound also displayed a TGI in [16] of over 100 µM.

As to `Clc1ccc(-c2nc3ccc(C45CC6CC(CC(C6)C4)C5)cc3[nH]2)cc1`, the TGI in test [1], in test [2], in test [3], in test [4], in test [5] and in test [17] was over 100 µM in each case. Moreover, the TGI in [18] was over 100 µM; in test [6], over 100 µM; in test [7] it was over 65.7 µM; in test [19], over 100 µM; in [8], over 100 µM; in test [9], 0.0221 µM. Besides, the concentration for total growth inhibition (TGI) was over 100 µM in [10]; over 100 µM in test [11]; over 100 µM in [12]; over 100 µM in [20]; over 90.5 µM in test [13]; over 100 µM in test [14]. This compound had a TGI in test [16] of over 100 µM.

In the case of `O/N=C1\CCc2cc3c(cc21)CCC3`, the TGI in test [1], in test [2], in [3], in test [4], in test [5] and in test [17] was over 100 µM in each case. The total growth inhibition concentration (TGI) in test [18], in test [6], in test [7], in test [19], in test [8] and in [9] was over 100 µM each time. Further, the concentration for total growth inhibition (TGI) in test [10], in [11], in test [12], in test [20], in test [13] and in test [14] was over 100 µM each time. Also, the TGI in test [16] is over 100 µM.

The record behind these values is PubChem BioAssay (NCI).
